Source: ChEMBL document CHEMBL2057199, “Development of novel M1 antagonist scaffolds through the continued optimization of the MLPCN probe ML012” (Bioorg Med Chem Lett, 2012)
Active and inactive are the calls of the source. The calls are words filed in the database; no cut-off is given here.

Tests used:
[1] = target: T1, Muscarinic acetylcholine receptor M1 (Homo sapiens) (UniProt P11229); assay: Antagonist activity at human muscarinic M1 receptor expressed in CHO cells assessed as inhibition of acetylcholine-induced calcium mobilization at 30 uM measured after 15 mins by fluorescence analysis; assay type: functional, cell-based; set-up: scale not given: the % may be the effect or the level left
T1 sequence (whole entry): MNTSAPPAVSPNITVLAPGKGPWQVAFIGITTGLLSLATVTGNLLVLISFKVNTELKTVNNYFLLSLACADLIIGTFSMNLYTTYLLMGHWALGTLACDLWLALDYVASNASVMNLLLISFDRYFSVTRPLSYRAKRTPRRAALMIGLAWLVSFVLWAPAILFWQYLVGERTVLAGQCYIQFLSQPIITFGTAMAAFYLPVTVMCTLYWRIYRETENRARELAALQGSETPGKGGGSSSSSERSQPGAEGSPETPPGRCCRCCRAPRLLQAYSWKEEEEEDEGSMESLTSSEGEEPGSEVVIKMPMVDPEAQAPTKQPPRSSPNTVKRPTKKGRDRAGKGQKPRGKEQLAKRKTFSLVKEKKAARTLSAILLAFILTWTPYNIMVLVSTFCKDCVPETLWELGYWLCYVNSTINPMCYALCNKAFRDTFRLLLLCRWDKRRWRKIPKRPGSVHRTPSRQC

[2] = target: T2, Muscarinic acetylcholine receptor M1 (Homo sapiens, UniProt P11229); assay: (§1) Antagonist activity at human muscarinic M1 receptor expressed in CHO cells assessed as inhibition of acetylcholine-induced calcium mobilization by fluorescence analysis; assay type: functional, cell-based
T2 sequence (P11229 whole entry): T1 sequence (whole entry)

[3] = target: T1, Muscarinic acetylcholine receptor M1 (Homo sapiens); assay: Antagonist activity at human muscarinic M1 receptor assessed as rightward shift in acetylcholine concentration response curve; assay type: functional
[4] = target: T1, Muscarinic acetylcholine receptor M1 (Homo sapiens); assay: Displacement of [3H]NMS from human muscarinic M1 receptor
[5] = target: T1, Muscarinic acetylcholine receptor M1 (Homo sapiens); assay: as §1; assay type: functional, cell-based
[6] = target: T3, Muscarinic acetylcholine receptor M2 (Homo sapiens, UniProt P08172); assay: Antagonist activity at human muscarinic M2 receptor assessed as inhibition of acetylcholine-induced calcium mobilization; assay type: functional
T3 sequence (P08172 whole entry): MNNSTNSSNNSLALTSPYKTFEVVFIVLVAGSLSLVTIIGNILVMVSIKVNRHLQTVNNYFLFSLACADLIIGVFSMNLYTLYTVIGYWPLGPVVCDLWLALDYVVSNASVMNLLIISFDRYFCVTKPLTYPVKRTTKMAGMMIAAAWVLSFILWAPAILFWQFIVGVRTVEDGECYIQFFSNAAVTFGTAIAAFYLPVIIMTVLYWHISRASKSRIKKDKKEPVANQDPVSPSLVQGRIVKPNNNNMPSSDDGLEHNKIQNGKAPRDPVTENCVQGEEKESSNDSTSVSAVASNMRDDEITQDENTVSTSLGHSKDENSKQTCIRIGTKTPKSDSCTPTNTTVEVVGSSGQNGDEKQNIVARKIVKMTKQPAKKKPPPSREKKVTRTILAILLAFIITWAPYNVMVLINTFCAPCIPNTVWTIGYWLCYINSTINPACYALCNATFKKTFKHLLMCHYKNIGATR

[7] = target: T4, Muscarinic acetylcholine receptor M5 (Homo sapiens, UniProt P08912); assay: Antagonist activity at human muscarinic M5 receptor assessed as inhibition of acetylcholine-induced calcium mobilization; assay type: functional
T4 sequence (P08912 whole entry): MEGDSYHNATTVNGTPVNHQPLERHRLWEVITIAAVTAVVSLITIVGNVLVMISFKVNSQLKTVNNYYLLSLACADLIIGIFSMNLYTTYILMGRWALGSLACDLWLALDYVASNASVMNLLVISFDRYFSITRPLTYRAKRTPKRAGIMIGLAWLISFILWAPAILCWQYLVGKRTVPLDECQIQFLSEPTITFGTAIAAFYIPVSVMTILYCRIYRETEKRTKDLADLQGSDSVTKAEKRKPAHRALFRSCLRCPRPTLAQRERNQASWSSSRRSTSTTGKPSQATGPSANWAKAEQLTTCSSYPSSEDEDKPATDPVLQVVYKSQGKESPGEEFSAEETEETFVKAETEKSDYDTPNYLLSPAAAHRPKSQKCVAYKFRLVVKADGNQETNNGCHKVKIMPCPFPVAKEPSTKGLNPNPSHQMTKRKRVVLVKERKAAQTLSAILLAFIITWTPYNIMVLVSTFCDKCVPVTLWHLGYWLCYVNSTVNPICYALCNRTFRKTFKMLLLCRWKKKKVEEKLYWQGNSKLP

[8] = target: T5, Muscarinic acetylcholine receptor M4 (Homo sapiens, UniProt P08173); assay: Antagonist activity at human muscarinic M4 receptor assessed as inhibition of acetylcholine-induced calcium mobilization; assay type: functional
T5 sequence (P08173 whole entry): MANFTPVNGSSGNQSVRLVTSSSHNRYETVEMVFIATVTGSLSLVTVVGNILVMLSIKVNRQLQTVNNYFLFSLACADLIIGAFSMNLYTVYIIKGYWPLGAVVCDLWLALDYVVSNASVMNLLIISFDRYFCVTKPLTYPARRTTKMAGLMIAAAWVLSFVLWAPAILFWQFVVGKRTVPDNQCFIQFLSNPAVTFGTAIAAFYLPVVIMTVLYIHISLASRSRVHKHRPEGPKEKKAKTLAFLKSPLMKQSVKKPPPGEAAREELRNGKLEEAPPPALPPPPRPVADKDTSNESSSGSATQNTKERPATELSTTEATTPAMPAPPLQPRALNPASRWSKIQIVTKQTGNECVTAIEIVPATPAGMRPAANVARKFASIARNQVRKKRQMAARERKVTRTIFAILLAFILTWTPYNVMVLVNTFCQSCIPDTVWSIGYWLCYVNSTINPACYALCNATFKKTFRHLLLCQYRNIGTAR

[9] = target: Muscarinic acetylcholine receptor M3 (Homo sapiens, UniProt P20309); assay: Antagonist activity at human muscarinic M3 receptor assessed as inhibition of acetylcholine-induced calcium mobilization; assay type: functional
Chain of Muscarinic acetylcholine receptor M3 (P20309 whole entry): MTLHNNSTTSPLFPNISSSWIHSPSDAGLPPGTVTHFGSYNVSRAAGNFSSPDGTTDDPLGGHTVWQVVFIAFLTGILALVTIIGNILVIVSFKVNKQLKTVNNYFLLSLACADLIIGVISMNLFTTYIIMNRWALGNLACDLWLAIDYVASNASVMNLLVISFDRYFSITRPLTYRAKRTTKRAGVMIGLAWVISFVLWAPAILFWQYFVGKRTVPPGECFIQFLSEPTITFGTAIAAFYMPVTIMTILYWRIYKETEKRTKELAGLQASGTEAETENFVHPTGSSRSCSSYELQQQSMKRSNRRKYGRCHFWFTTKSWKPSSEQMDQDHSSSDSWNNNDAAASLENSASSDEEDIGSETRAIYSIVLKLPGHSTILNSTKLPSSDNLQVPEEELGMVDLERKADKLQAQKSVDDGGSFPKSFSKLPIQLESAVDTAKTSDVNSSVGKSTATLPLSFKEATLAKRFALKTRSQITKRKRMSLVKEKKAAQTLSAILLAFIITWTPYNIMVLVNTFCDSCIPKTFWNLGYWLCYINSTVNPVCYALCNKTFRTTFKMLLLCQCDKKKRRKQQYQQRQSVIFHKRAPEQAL

Structure (SMILES)	Activity [1] [%]	IC50 ([2]; read-out: IC50) [nM]	other results
O=C(C1CN(S(=O)(=O)c2cccc3cnc(Cl)cc23)C1)N1CCN(c2ccncc2)CC1	6	1600	–
O=C(C1CN(S(=O)(=O)c2ccc(Cl)nc2)C1)N1CCN(c2ccncc2)CC1	5.7	500	–
O=C(C1CN(S(=O)(=O)c2ccc3ncccc3c2)C1)N1CCN(c2ccncc2)CC1	8	–	–
Cc1noc(C)c1S(=O)(=O)N1CC(C(=O)N2CCN(c3ccncc3)CC2)C1	15.3	2300	–
O=C(C1CN(S(=O)(=O)c2cccc(Cl)c2)C1)N1CCN(c2ccncc2)CC1	20.7	–	–
O=C(C1CN(S(=O)(=O)c2ccc3c(c2)CCO3)C1)N1CCN(c2ccncc2)CC1	3.6	130	–
Cc1cc2c(S(=O)(=O)N3CC(C(=O)N4CCN(c5ccncc5)CC4)C3)cccc2cn1	9.8	–	–
Cc1nc(C(F)(F)F)c(S(=O)(=O)N2CC(C(=O)N3CCN(c4ccncc4)CC3)C2)s1	12.7	2500	–
O=C(C1CN(S(=O)(=O)c2cccc3c2OCO3)C1)N1CC2CN(c3ccncc3)CC2C1 (stereo not drawn)	13.5	1900	–
Cc1cc(S(=O)(=O)N2CC(C(=O)N3CCN(c4ccncc4)CC3)C2)cnc1Cl	4.9	–	–
O=C(C1CN(S(=O)(=O)c2ccccc2OC(F)(F)F)C1)N1CCN(c2ccncc2)CC1	8.4	2500	–
O=C(C1CN(S(=O)(=O)c2cccnc2Cl)C1)N1CC2CN(c3ccncc3)CC2C1 (stereo not drawn)	9.9	1500	–
O=C(C1CN(S(=O)(=O)c2cccc3nonc23)C1)N1CC2CN(c3ccncc3)CC2C1 (stereo not drawn)	12.6	2000	–
O=C(C1CN(S(=O)(=O)c2cccc3cnccc23)C1)N1CCN(c2ccnc(Cl)c2)CC1	3.6	180	–
O=C(C1CN(S(=O)(=O)c2cccc3c(Cl)nc(Cl)cc23)C1)N1CCN(c2ccncc2)CC1	12.7	–	–
COc1ccc(S(=O)(=O)N2CC(C(=O)N3CCN(c4ccncc4)CC3)C2)cn1	20.6	> 10000	–
O=C(C1CN(S(=O)(=O)c2cccc(Cl)c2Cl)C1)N1CCN(c2ccncc2)CC1	3.5	840	–
O=C(C1CCCN(S(=O)(=O)c2cccc3nsnc23)C1)N1CCN(c2ccncc2)CC1 (racemic)	33.4	> 10000	–
Cc1cc2c(S(=O)(=O)N3CC(C(=O)N4CC5CN(c6ccncc6)CC5C4)C3)cccc2cn1 (stereo not drawn)	14.8	–	–
Cc1cc(N2CCN(C(=O)C3CN(S(=O)(=O)c4cccc5cnccc45)C3)CC2)cc(C)n1	4.7	690	–
Cc1ccnc(S(=O)(=O)N2CC(C(=O)N3CCN(c4ccncc4)CC3)C2)c1	41.3	> 10000	–
O=C(C1CN(S(=O)(=O)c2cccc3ncccc23)C1)N1CC2CN(c3ccncc3)CC2C1 (stereo not drawn)	25.8	> 10000	–
O=C(C1CN(S(=O)(=O)c2cccc(F)c2)C1)N1CCN(c2ccncc2)CC1	9.5	1700	–

Structure (SMILES)	Activity [1] [%]	IC50 ([2]; read-out: IC50) [nM]	other results
O=C(C1CN(S(=O)(=O)c2cccc(Cl)c2F)C1)N1CCN(c2ccncc2)CC1	11.4	–	–
O=C(C1CN(S(=O)(=O)c2cccnc2Cl)C1)N1CCN(c2ccncc2)CC1	8.2	1300	–
O=C(C1CN(S(=O)(=O)c2cccc3nsnc23)C1)N1CC2CN(c3ccncc3)CC2C1 (stereo not drawn)	16.2	–	–
Cc1cc(N2CCN(C(=O)C3CN(S(=O)(=O)c4cccc5cnccc45)C3)CC2)ccn1	3.1	110	–
O=C(C1CN(S(=O)(=O)c2cccc(Cl)c2Cl)C1)N1CC2CN(c3ccncc3)CC2C1 (stereo not drawn)	6.6	–	–
O=C(C1CN(S(=O)(=O)c2ccc3c(c2)OCO3)C1)N1CCN(c2ccncc2)CC1	5.3	–	Activity [3]: Active; Activity [4]: Active; inhibition [5]: Dose-dependent effect
O=C(C1CN(S(=O)(=O)c2ccc(Cl)cn2)C1)N1CCN(c2ccncc2)CC1	38.5	> 10000	–
O=C(C1CN(S(=O)(=O)c2cccc3ncccc23)C1)N1CCN(c2ccncc2)CC1	8.8	–	–
O=C(C1CN(S(=O)(=O)c2cccnc2)C1)N1CCN(c2ccncc2)CC1	4.9	370	–
O=C(C1CN(S(=O)(=O)c2cccc3c(Cl)nccc23)C1)N1CCN(c2ccncc2)CC1	3.5	740	–
O=C(C1CN(S(=O)(=O)c2ccc3cn[nH]c3c2)C1)N1CCN(c2ccncc2)CC1	33	> 10000	–
Cn1cc(S(=O)(=O)N2CC(C(=O)N3CCN(c4ccncc4)CC3)C2)cn1	12.3	1200	–
O=C(C1CN(S(=O)(=O)c2ccc3occc3c2)C1)N1CCN(c2ccncc2)CC1	10.5	2300	–
O=C(C1CN(S(=O)(=O)c2cccc3cnccc23)C1)N1CCN(c2ccncn2)CC1	7.3	–	–
O=C(C1CN(S(=O)(=O)c2cccc3nsnc23)C1)N1CCN(c2ccncc2)CC1	10.1	2200	IC50 ([2]; read-out: pIC50 (converted)): 2090 nM
O=C(C1CN(S(=O)(=O)c2ccc(C(F)(F)F)nc2)C1)N1CCN(c2ccncc2)CC1	40.7	> 10000	–
O=C(C1CCN(S(=O)(=O)c2cccc3nsnc23)C1)N1CCN(c2ccncc2)CC1 (racemic)	47.1	> 10000	–
O=C(C1CCN(S(=O)(=O)c2cccc3nsnc23)CC1)N1CCN(c2ccncc2)CC1	–	–	IC50 ([2]; cho): Not Active
O=C(C1CN(S(=O)(=O)c2cccc(F)c2)C1)N1CC2CN(c3ccncc3)CC2C1 (stereo not drawn)	18.9	3200	–
Cc1cnccc1N1CCN(C(=O)C2CN(S(=O)(=O)c3cccc4cnccc34)C2)CC1	7.3	510	–
O=C(C1CN(S(=O)(=O)c2cccc3nonc23)C1)N1CCN(c2ccncc2)CC1	–	430	–
O=C(C1CN(S(=O)(=O)c2cccc3cnccc23)C1)N1CCN(c2ccncc2)CC1	2.7	–	IC50 [6]: > 10000 nM; IC50 [7]: > 10000 nM; IC50 [8]: > 10000 nM; IC50 [9]: > 10000 nM
